In brackets after ≈: the same amount, converted by molar mass. Activity calls are given as the source filed them. No cut-off for these calls is given here. *1 amine or outer side, *2 acyl side, *3 side chain or, on linkers, in order; H or OH if unused. Where a SMILES comes first, the peptide text is derived from it. Bridges are numbered along the chain shown (N, C = ends). [ ]: non-standard residue; d: D form. The star is where a group is joined. hTyr(3S-OH,4S-OH,3'-OSO3H) = N[C@H](C(=O)O)[C@H](O)[C@@H](O)c1ccc(O)c(OS(=O)(=O)O)c1; Orn(4R-OH,5R-OH) = O=C([C@H](C[C@@H](O)[C@@H](O)N[*:3])N[*:1])[*:2]; Pro(3S-OH,4S-Me) = C[C@H]1CN[C@H](C(=O)O)[C@H]1O; X1 = CCCCCOc1ccc(-c2cc(-c3ccc(C(=O)*)cc3)no2)cc1; Gln(3R-OH) = NC(=O)C[C@@H](O)[C@H](N)C(=O)O; Hyp = O=C(O)[C@@H]1C[C@@H](O)CN1
Experiments:
[1] = tested on: Nakaseomyces glabratus; test: Reduction of lung fungal burden in Candida glabrata infected ip dosed neutropenic Swiss Webster mouse; format: functional
[2] = tested on: Nakaseomyces glabratus; test: Reduction of fungal burden in Candida glabrata infected neutropenic Swiss Webster mouse at 100 mg/kg, ip after 7 days; format: functional, organism-based; parameters: dose 100 mg/kg
[3] = tested on: Nakaseomyces glabratus; test: Reduction of kidney fungal burden in Candida glabrata infected ip dosed neutropenic Swiss Webster mouse; format: functional
[4] = tested on: Nakaseomyces glabratus; test: Antifungal activity against Candida glabrata isolated from candidemia patient after 24 hrs; format: functional
[5] = tested on: Nakaseomyces glabratus; test: Reduction of spleen fungal burden in Candida glabrata infected ip dosed neutropenic Swiss Webster mouse; format: functional
[6] = Serum clearance in Candida glabrata infected neutropenic Swiss Webster mouse; format: ADME, organism-based
[7] = tested on: Nakaseomyces glabratus; test: Reduction of kidney fungal burden in Candida glabrata infected neutropenic Swiss Webster mouse at >=50 mg/kg, ip after 7 days; format: functional, organism-based
[8] = tested on: Nakaseomyces glabratus; test: Antifungal activity against Candida glabrata isolated from candidemia patient after 48 hrs; format: functional

CCCCCOc1ccc(-c2cc(-c3ccc(C(=O)N[C@H]4C[C@@H](O)[C@@H](O)NC(=O)[C@@H]5[C@@H](O)[C@@H](C)CN5C(=O)[C@H]([C@H](O)CC(N)=O)NC(=O)[C@H]([C@H](O)[C@@H](O)c5ccc(O)c(OS(=O)(=O)O)c5)NC(=O)[C@@H]5C[C@@H](O)CN5C(=O)[C@H]([C@@H](C)O)NC4=O)cc3)no2)cc1 [MICAFUNGIN] (X1-[Orn(4R-OH,5R-OH)]T[Hyp][hTyr(3S-OH,4S-OH,3'-OSO3H)][Gln(3R-OH)][Pro(3S-OH,4S-Me)]; lactam 1-C)
ED50 [1]: 17.3 mg/kg | Activity [2]: Active | ED50 [3]: 14.7 mg/kg | MIC [4]: 0.02 µg/mL (≈ 0.0157 µM) | ED50 [5]: 7.38 mg/kg | clearance [6]: 0.0133 mL/min | Activity [7]: Active | MIC [8]: 0.02 µg/mL (≈ 0.0157 µM)
